Experimental data taken from patent US9943540B2, “Pharmaceutical formulation for the treatment of osteoarthritis containing clodronic acid and hyaluronic acid” (ABIOGEN PHARMA S.P.A., priority 2005, dated 2018).
“Also recorded” adds a separate entry of the source.

Tests used:
[1] = tested on: damaging effects on the joint structures by Freund's adjuvant; assay: Study on rats: damage to joint structures by Freund's adjuvant; format: in vivo
gonarthritis [2] = assay: Clinical trial of intra-articular sodium clodronate in evident gonarthritis; format: in vivo, patients
From the text: (§1) The low pH used was dictated by stability problems, +which made less acid values of the solutions unacceptable.

[3] = tested on: gonalgia and gonarthrosis; assay: Multicenter clinical study of intra-articular clodronate; format: in vivo, patients; conditions: 2 mg once a week over 4 consecutive weeks
From the text: as §1

[4] = tested on: synovitis secondary to knee osteoarthritis; conditions: patients with synovitis secondary to knee osteoarthritis; cited from earlier work
gonarthritis [5] = assay: Preliminary clinical trial of intra-articular infiltration, responders by Womac 20 and Womac 50; format: in vivo, patients; conditions: for Womac 20 (responders, 20% improvement in the symptoms) / Womac 50 (responders, 50% improvement in the symptoms): patients with gonarthritis, % of patients
Description: Preliminary clinical trials with the formulations according to the invention were based on the measurement of Womac 20 and Womac 50, ie. a 20% and 50% improvement in the symptoms to establish the responders to the treatment (Ann Rheum Dis. 2005). Recently, to assess the effectiveness of intra-articular clodronic acid, 1 mg of clodronic acid is administered in patients with gonarthritis obtaining an improvement in symptoms which, when evaluated with Womac 50, related to 32% of the patients. 15 patients suffering from gonarthritis received, according to the invention, an infiltration of 2 ml of solution constituted by 20 mg of hyaluronic acid (Hyalgan) together with 1 mg of clodronic acid once a week for 3 weeks. At the end of the infiltration cycle, as reassumed in the following table, 58% of the patients were responders according to Womac 20, and 37% were responders according to Womac 50. […] The final result of 3 weekly infiltrations of the combination of the two drugs was also better than the cycle with 5 weekly infiltrations of hyaluronic acid (Womac 20:51% and Womac 50:30%) or clodronic acid (Womac 20:54% and Womac 50:32%).

[6] = 2 ml intra-articular infiltration once a week for 3 weeks
[7] = 2 ml intra-articular infiltration once a week for 5 weeks

| Molecule | inhibition of damaging effects on the joint structures by Freund's adjuvant [1] | attenuation of pain and recovery of joint movement (gonarthritis [2]; after 5 intra-articular injections of 2 mg) | adverse events: pain response at the time of the injection (gonarthritis [2]; clodronate alone intra-articularly, acidic solution, observed in the trials of b9 and b10) | response to intra-articular administration [3] | patient's symptomatology [4] | Womac 20 (responders, 20% improvement in the symptoms) (gonarthritis [5]; [6]) [%] | Womac 50 (responders, 50% improvement in the symptoms) (gonarthritis [5]; [6]) [%] | Womac 20 (responders, 20% improvement in the symptoms) (gonarthritis [5]; [7]) [%] | Womac 50 (responders, 50% improvement in the symptoms) (gonarthritis [5]; [7]) [%] | improvement in symptoms evaluated with Womac 50 (gonarthritis [5]; 1 mg clodronic acid intra-articular in patients with gonarthritis, regimen not stated, % of the patients) [%] |
| --- | --- | --- | --- | --- | --- | --- | --- | --- | --- | --- |
| O=P(O)(O)C(Cl)(Cl)P(=O)(O)O [sodium clodronate] | able to inhibit damaging effects on the joint structures | interesting results were observed | some adverse events were also observed; also recorded: normally occurs | best responses | significant improvement | – | – | – | – | – |
| sodium hyaluronate | – | – | – | – | – | 41 | 24 | 51 | 30 | – |
| O=P(O)(O)C(Cl)(Cl)P(=O)(O)O [Clodronic acid, clodronic acid] | – | – | – | – | – | 43 | 27 | 54 | 32 | 32 |
